Key:
HPAF-II cells [1] = assay: 5-FU cytotoxicity with or without benzyl-α-GalNAc pre-exposure, sulforhodamine B assay; assay type: cell-based, human
Protocol: The effects of increasing benzyl-α-GalNAc concentrations on cytotoxicity of 5-FU (108 μmol/ml) against HPAF-II cells was first tested. […] The growth inhibitory effect of 5-FU after 24 hr of exposure was determined using sulforhodamine B (Sigma-Aldrich, St. Louis, Mo.) assay the percent of viable cells was calculated as follows: […]

Capan-1 cells [2] = assay: as above; assay type: cell-based, human
U-87 MG cells [3] = assay: as above; assay type: cell-based, human
HPAF-II cells [4] = assay: Neuraminidase toxicity and effect on 5-FU cytotoxicity, sulforhodamine B assay; assay type: cell-based, human
Protocol: The enzyme neuraminidase, which cleaves terminal sialic acid residues, was used in these studies (Varki et al., J. Biol. Chem., 258:12465-12471 [1983]). […] The removal of sialic acid residues from cell surface was confirmed by labeling cells with 5 μl/well FITC conjugated MAA lectin for 30 mins. The effects of neuraminidase on CD227 antibody association was determined by labeling cells with 5 μl/well CD227 antibody for 4 hr. […] The effects of neuraminidase on 5-FU cytotoxicity was determined by exposing cells to 0.05 U/ml neuraminidase for 1 hr followed by treatment with 5-FU for 24 hr. Percent cell viability was determined using sulforhodamine B assay.

Capan-1 tumors = assay: Anti-tumoral activity in Capan-1 pancreatic tumor model (tumor volume, histochemical staining, neoplastic cell density); assay type: in vivo, SCID mice
Protocol: All animal work was performed in the animal facility at Northeastern University, Boston, Mass. in accordance with the institutional guidelines. Female SCID (severe combined immunodeficient mice), 6 to 8 weeks old purchased from Massachusetts General Hospital, Boston, Mass. were used for our study since they have been used successfully for developing human xenografts of pancreatic tumors. To establish the tumors, 2.5×10^6 Capan-I cells in 0.1 ml of cell culture medium were injected into the subcutaneous dorsa of all mice. Mice were weighed daily using a digital weighing balance (AccuSeries®, Fisher Scientific, Arvada, Colo.) and tumor volumes were also measured every day using an electronic digital caliper (Control Company, Friendswood, Tex.). Tumor volumes were calculated using the formula a^2×b×0.52, where “a” is the longer diameter and “b” is the shorter diameter. Once the tumor volumes were approximately 50 mm^3-70 mm^3 the experimental groups received intratumoral injections of benzyl-α-GalNAc (0.1 ml injection; 10 mg/ml) whereas […] at intervals of 48 hr. When the tumor volumes were approximately 100 mm^3 5-FU was administered via the intravenous route. Animals in treatment groups received two injections (0.1 ml) of 5-FU at interval of 4 days whereas control mice received saline (0.1 ml). The total dose of 5-FU administered was 125 mg/kg. At the end of the experiment animals were sacrificed, tumor tissue was surgically removed and fixed in 10% formalin at 4° C. for histochemical staining.
For histochemical staining, paraffin-embedded tissue sections (5 μm) were stained with hematoxylin and eosin (H&E) to evaluate and compare the extent of tissue viability. The tumor sections were scanned and qualitative images captured using brightfield microscopy (Olympus BX61WI, NY). The number of tumor cells in each section was quantified using bioquant imaging software and expressed as percent of total tumor area. To quantify the total tumor area we first traced the outline of the entire tumor section in each field of view (FOV). The pixels within the traced area were then selected and the pixel count was determined by the software. A total of five FOV were analyzed to determine the total pixel count of the tumor area. Microscope stage encoders were used to ensure that no tumor area was counted more than once. Similarly the total pixel count of the neoplastic cells featured in blue in each FOV was determined. The total percent of neoplastic cell density was calculated as follows: […]
For these studies the pancreatic cell line, Capan-1 was used to used to establish a pancreatic tumor model. Capan-1 tumors were established in subcutaneous dorsa of female SCID mice (see, Example 7). […] 5-FU therapy began when the tumor size was approximately 100 mm^3.

U-87 MG cells [5] = assay: Intracellular uptake of 5-FU by immunofluorescence labeling; assay type: cell-based, human
Protocol: (§1) Capan-1 and U-87 MG cells were exposed to the maximum non-toxic concentration of benzyl-α-GalNAc for 48 hr followed by 1 hr and 4 hr exposure to 5-FU (50 μmol/ml). The intracellular levels of the drug were determined using a primary antibody against 5-FU followed by FITC-conjugated secondary antibody. Specifically, sterile cover slips were placed in 24-well plates (Corning, N.Y.). Cells were seeded at 2×10^4 per ml in the same 24-well plates. Following a 24 hr incubation period at 37° C. cells was exposed to the maximum non-toxic concentration of benzyl-α-GalNAc solution prepared in cell culture media, the control cells were incubated in growth media without the O-glycosylation inhibitor. Following an additional 48 hr of incubation, each row was washed with 1×PBS and treated with 5-FU prepared in cell growth medium. The intracellular uptake of 5-FU following 1 hr and 4 hr of cell exposure to drug was determined by immunofluorescence labeling. Briefly, the medium containing 5-FU was aspirated and cells were washed twice with 1×PBS. The cells were then fixed with cold methanol for 10 min at −20° C. followed by rinsing with cold acetone. The cells were next washed twice with 1×PBS followed by 30 min rehydration in 1×PBS. For immunolabeling, cells were exposed to 200 μl (1:1000 dilution; stock concentration: 1 mg/ml) of primary antibody against 5-FU (Lampire Biological Laboratories, Pipersville, Pa.) for 1 hr at room temperature. The unassociated primary antibody was removed by washing three times with 1×PBS and cells were then incubated at room temperature with 200 μl (1:1000 dilution; stock concentration: 1 mg/ml) of fluorescein isothiocyanate (FITC)-conjugated goat anti-mouse IgG secondary antibody (Lampire Biological Laboratories, Pipersville, Pa.). Following 1 hr incubation with the secondary antibody, cells were washed twice with 1×PBS to remove any unassociated secondary antibody and the fluorescence intensity was measured using a fluorescence microplate reader (Bio-Tek® Instruments Inc., VT) at excitation wavelength of 485 nm and emission wavelength of 528 nm. The intracellular uptake of 5-FU was observed under a fluorescence microscope. The coverslip from each well was mounted onto a glass microslide (Corning, N.Y.) with SlowFade® Gold antifade reagent (Invitrogen, Carlsbad, Calif.). The images were captured using a combination of fluorescence and DIC microscopic applications at 20× magnification (Olympus BX61WI-Melville, N.Y.).

Capan-1 cells [6] = assay: as above
Protocol: as §1

Capan-1 cells [7] = assay: Cytotoxic activity of chemotherapeutic agents with or without benzyl-α-GalNAc pretreatment, sulforhodamine B assay; assay type: cell-based, human; conditions: benzyl-α-GalNAc 48 hr, then drug 24 hr
Protocol: Human pancreatic cancer cell morphology was visualized using light microscopy. Six hydrophilic chemotherapeutic agents namely cisplatin, gemcitabine, carboplatin, methotrexate, doxorubicin, vinblastine and six lipophilic agents namely lomustine, busulfan, camptothecin, etoposide, teniposide and paclitaxel with molecular weights ranging from approximately 200 to 900 were used. Two different concentrations of each drug type were evaluated in the presence and absence of heavily O-glycosylated chains with Benzyl-α-GalNAc as O-glycosylation inhibitor. Cell viability was determined using Sulforhodamine B assay. The percent change in cell viability was used to assess the overall benefit of reducing mucin in Capan-1 cells when different cytotoxic drugs are employed.
The growth inhibitory effect of the chemotherapeutic agent after 24 hr of exposure was determined by sulforhodamine B assay and percent of viable cells was calculated as follows: […]

[8] = 5-FU exposure 1 h, Benzyl-α-GalNAc + (48 hr pre-treatment)
[9] = 5-FU exposure 1 h, Benzyl-α-GalNAc −
[10] = 5-FU exposure 4 h, Benzyl-α-GalNAc + (48 hr pre-treatment)
[11] = 5-FU exposure 4 h, Benzyl-α-GalNAc −

Structure (SMILES): O=c1[nH]cc(F)c(=O)[nH]1 [5-FU, 5-fluorouracil]
- percent viability (HPAF-II cells [1]; 5-FU (108 μmol/ml) alone, 24 hr): 77.1±2.5%
- percent viability (HPAF-II cells [1]; pretreated with benzyl-α-GalNAc 0.8 mg/ml for 48 hr, then 5-FU (108 μmol/ml) 24 hr): 63.4±8.6%
- percent viability (Capan-1 cells [2]; 5-FU (80 μmol/ml) alone): 65.9±2%
- percent viability (Capan-1 cells [2]; benzyl-α-GalNAc (0.4 mg/ml) followed by 5-FU (80 μmol/ml)): 53.6±3.6%
- percent cell viability (U-87 MG cells [3]; 5-FU alone): 37%
- percent cell viability (U-87 MG cells [3]; benzyl-α-GalNAc (0.8 mg/ml) prior to 5-FU): 37%
- percent viability vs 5-FU alone (HPAF-II cells [4]): not significantly altered
- percent viability (HPAF-II cells [4]; human, 24 hr): 49%±4.6
- histochemical staining of tumor sections, neoplastic cells (Capan-1 tumors; H&E stained sections): fewer tumor cells
- tumor volume compared to control tumors (saline group) (Capan-1 tumors; benzyl-α-GalNAc intratumoral days 4, 6, 8, 10, 5-FU intravenous, total 125 mg/kg): significantly lower
- Percent Tumor Area (neoplastic cell density as percent of total tumor area) (Capan-1 tumors; bioquant imaging software, tumor sections at end of experiment): 21.0 ± 1.4%
- Intracellular uptake of 5-Fluorouracil, fluorescence intensity (U-87 MG cells [5]; [8]): 2346.9 arbitrary units
- Intracellular uptake of 5-Fluorouracil, fluorescence intensity (U-87 MG cells [5]; [9]): 3757.0 arbitrary units
- Intracellular uptake of 5-Fluorouracil, fluorescence intensity (U-87 MG cells [5]; [10]): 2989.4 arbitrary units
- Intracellular uptake of 5-Fluorouracil, fluorescence intensity (U-87 MG cells [5]; [11]): 3704.9 arbitrary units
- staining patterns of 5-FU (imaging), pre-treated with benzyl-α-GalNAc (U-87 MG cells [5]; 1 hr or 4 hr of exposure to 5-FU (50 μmol/ml)): did not alter
- Intracellular uptake of 5-Fluorouracil, fluorescence intensity (Capan-1 cells [6]; [8]): 7271.4 arbitrary units
- Intracellular uptake of 5-Fluorouracil, fluorescence intensity (Capan-1 cells [6]; [9]): 1696.9 arbitrary units
- Intracellular uptake of 5-Fluorouracil, fluorescence intensity (Capan-1 cells [6]; [10]): 3933.3 arbitrary units
- Intracellular uptake of 5-Fluorouracil, fluorescence intensity (Capan-1 cells [6]; [11]): 4253.0 arbitrary units
- fluorescence staining of intracellular 5-FU (imaging), pre-treated with benzyl-α-GalNAc vs 5-FU alone (Capan-1 cells [6]; 1 hr of exposure to 5-FU (50 μmol/ml)): higher fluorescence staining
- fluorescence staining of intracellular 5-FU (imaging), pre-treated with benzyl-α-GalNAc vs controls (Capan-1 cells [6]; 4 hr of exposure to 5-FU (50 μmol/ml)): no difference

Structure (SMILES): CC[C@@]1(O)C(=O)OCc2c1cc1n(c2=O)Cc2cc3ccccc3nc2-1 [Camptothecin]
- Percent increase in chemotherapeutic activity (chemotherapeutic benefit) when pretreated with benzyl-α-GalNAc (Capan-1 cells [7]): 34%

Source: patent US20100166726A1, “COMPOSITIONS FOR IMPROVING CELLULAR UPTAKE OF A CHEMOTHERAPEUTIC AGENT IN A CELL EXHIBITING MUCIN DEREGULATION” (NORTHEASTERN UNIVERSITY, priority 2007, published 2010)
